Assay results reported in patent publication US20210252047A1, “USE OF HALOGEN COMPOUNDS FOR THE TREATMENT AND PREVENTION OF TISSUE INJURY AND POST-INTENSIVE CARE SYNDROME” (Faraday Pharmaceuticals, Inc., priority 2018, published 2021).

Tests used:
[1] = test system: mice subjected to hindlimb ischemia reperfusion injury; assay: Hindlimb ischemia reperfusion injury (2 hours ischemia, 3 hours reperfusion), Example 1; assay type: in vivo, C57BL/6 mice
Experimental: Anesthetized adult male C57BL/6 mice were subjected to hindlimb ischemia reperfusion injury (bilateral leg tourniquets for 2 hours (ischemia) followed by 3 hours of reperfusion after tourniquet removal). To determine whether exogenous iodide could reduce damage to heart and lung tissue caused by the ischemia reperfusion injury, various doses of iodide (0 mg/kg, 1 mg/kg, 10 mg/kg or 20 mg/kg) were administered intravenously (i.v.) by the retro orbital (r.o.) to the animals 5 minutes prior to reperfusion of the hind limb.
The animals were then sacrificed and blood (plasma) and lung and GC muscle samples obtained. The blood (plasma) samples were assayed to determine the concentrations of creatine kinase and cardiac troponin present in each. In addition, the amount of edema present in the lung and GC muscle was determined as wet weight/dry weight.

[2] = test system: mice subjected to bilateral hind limb ischemia; assay: Bilateral hind-limb ischemia model of systemic inflammation, Study A (2 hours ischemia, 3 hours reperfusion); assay type: in vivo, C57Bl/6 mice; settings: after 3 hours of reperfusion
Experimental: (§1) A bilateral hind-limb ischemia model was used to induce systemic inflammation. Male C57Bl/6 mice (7-10 weeks old) were subjected to 2 hours of bilateral hind limb ischemia followed by 3 hours of reperfusion. Ischemia was induced by application of latex o-rings above the greater trochanter using a McGivney Hemorrhoidal ligator. After 3 hours of reperfusion, the plasma was analyzed for levels of creatine kinase (CK), or other markers of organ injury: blood urea nitrogen (BUN), alanine aminotransferase (ALT), and aspartate aminotransferase (AST).
A 1, 3, 10, or 20 mg/kg bolus of sodium iodide was administered intravenously (i.v.) by the retro orbital (r.o.) route 5 minutes prior to reperfusion of the hind limbs.

[3] = test system: mice subjected to bilateral hind limb ischemia; assay: Hind limb ischemia survival, Study B (2.5 hours ischemia, NaI in drinking water); assay type: in vivo, C57Bl/6 mice
Experimental: as §1
The model used to evaluate survival was similar to that previously described for Study A; however, the time of ischemia was increased to 2.5 hours. The time from reperfusion to death was monitored for the next 24 hours.
The drinking water of the mice was supplemented with 84 μM NaI and the mice were allowed ad libitium access (p.o.) to this water for >5 days prior to hind limb ischemia.

[4] = test system: mice subjected to bilateral hind limb ischemia; assay: Hind limb ischemia survival, Study C (3 hours ischemia, i.v. bolus); assay type: in vivo, C57Bl/6 mice
Experimental: as §1
The model used to evaluate survival was similar to that previously described for Study A; however, the time of ischemia was increased to 3 hours. The time from reperfusion to death was monitored for the next 2 months.
A 1 mg/kg bolus of sodium iodide was administered intravenously (i.v.) by the retro orbital (r.o.) route 5 minutes prior to reperfusion of the hind limbs.

[5] = test system: mice subject to bilateral hind limb ischemia (HLI); assay: Hind limb ischemia (HLI) cytokine levels in muscle and plasma, Example 3; assay type: in vivo, C56Bl/6 mice; settings: 24 hours after reperfusion
Experimental: A mouse model of hind limb ischemia was utilized to induce intramuscular and systemic inflammation. Male C56Bl/6 mice˜7-10 weeks old were subject to bilateral hind limb ischemia (HLI) by placing an O-ring on both hind limbs for 2.5 hours. Five minutes prior to reperfusion an intravenous bolus of sodium iodide (NaI; FDY-5301) at a concentration of 1 mg/kg was delivered. Vehicle treated animals received an i.v. bolus of saline. After i.v. delivery, at the 2.5 hour mark, the O-rings were cut off and removed to allow for tissue reperfusion. The mice were sacrificed 24 hours following reperfusion. Upon sacrifice, whole blood was removed (plasma was then separated and frozen at −80° C.), the gastronemius muscle was removed and snap frozen in liquid nitrogen and then stored at −80° C. The cytokines were evaluated on a MAGPIX® instrument (Luminex Corp) using a custom multiplex assay kit from MilliporeSigma (MCYTOMAG-70K-09, containing: INF-γ, IL-18, IL-2, IL-6, IL-10, KC, LIX, MIP-2 & TNF-α.

[6] = i.v. administration 5 minutes prior to reperfusion, FIG. 2
[7] = 1 mg/kg i.v. bolus 5 minutes prior to reperfusion, 2.5 h ischemia, p<0.05, FIG. 7

[I-].[Na+] [sodium iodide]
plasma CK (creatine kinase) levels compared to vehicle ([1]; 1 mg/kg, 10 mg/kg or 20 mg/kg i.v. (retro orbital) 5 minutes prior to reperfusion, 2 h ischemia, 3 h reperfusion, FIG. 1A): significantly reduced | level of cardiac troponin ([1]; 10 mg/kg i.v. 5 minutes prior to reperfusion, plasma, 2 h ischemia, 3 h reperfusion, FIG. 1B): significantly reduced | muscle edema (gastrocnemius), wet weight/dry weight [1, 6]: reduced | pulmonary edema (lung), wet weight/dry weight [1, 6]: reduced | plasma CK levels compared to vehicle ([2]; 1 mg/kg i.v. bolus 5 minutes prior to reperfusion, FIG. 3): significantly reduced | plasma level of blood urea nitrogen (BUN) ([2]; 1, 3, 10 or 20 mg/kg i.v. bolus 5 minutes prior to reperfusion, FIG. 4A): reduced | plasma level of alanine aminotransferase (ALT) ([2]; 1, 3, 10 or 20 mg/kg i.v. bolus 5 minutes prior to reperfusion, FIG. 4B): reduced | plasma level of aspartate aminotransferase (AST) ([2]; 1, 3, 10 or 20 mg/kg i.v. bolus 5 minutes prior to reperfusion, FIG. 4C): reduced | animals alive at 24 hours ([3]; 84 μM in drinking water (p.o.) >5 days prior to ischemia, vehicle 50%): 90% | survival compared to vehicle ([3]; 84 μM in drinking water ad libitum (p.o.) >5 days prior to ischemia, monitored 24 hours, FIG. 5): significantly increased | survival compared to vehicle administration ([4]; 1 mg/kg i.v. bolus 5 minutes prior to reperfusion): increased | animals alive after 72 hours ([4]; 1 mg/kg i.v. bolus 5 minutes prior to reperfusion, vehicle 0%, FIG. 6A): 20% | further survival of the animals alive after 72 hours (study ended at this point) ([4]; 1 mg/kg i.v. bolus, FIG. 6B): ≥ 2 months | plasma IL-6 ([5]; 1 mg/kg i.v. bolus 5 minutes prior to reperfusion, 2.5 h ischemia, FIG. 8): significant reduction | IL-6 in muscle tissue [5, 7]: significant reduction | IL-10 in muscle tissue [5, 7]: significant reduction | KC in muscle tissue [5, 7]: significant reduction | MIP-2 in muscle tissue [5, 7]: significant reduction | inflammation, heat map of all cytokines assessed in muscle or plasma ([5]; 1 mg/kg i.v. bolus, FIGS. 9 and 10): overall reduction | cytokine levels in plasma ([5]; FIG. 8): significantly reduced | cytokine levels in muscle tissue (IL-6, IL-10, CXCL1 or KC, MIP-2) ([5]; FIGS. 7A-7D): significantly reduced
